Assay results taken from patent US20130338130A1 (priority 2009, published 2013).
Like-named read-outs stand apart in the source and are kept apart here.

Tested on: ATCC strain 43300 Staphylococcus aureus
Conditions: for recovery after enrichment in Mueller-Hinton broth: 1 cfu detection limit
Description: Additional antibiotic was added every 24 hours. The growth periods tested were 24 (see FIG. 4), 48, 72, 96 and 120 hours.
USP<51> Antimicrobial Effectiveness protocol was used as the template experimental paradigm. […] All concentrations were plated out to the 10^−7 dilutions to ascertain cfu/ml. […] Additional antibiotic was added at the initial concentration every 24 hours.
ATCC strain 43300 Staphylococcus aureus was streaked out for isolations. An isolated colony was chosen, streaked again and incubated. Isolate was chosen and then diluted to a McFarland standard of one. The estimated value was then taken to inoculate tubes containing growth media and 12, 30 or 60 μg/ml oxacillin with approximately 10^5 cfu/ml. These tubes were incubated and plated for counting cfu. A clone having no observed log reduction in cfu was selected for the rest of the experiment.
Material was calculated on a 10 ml volume. Sterile oxacillin was added to each experimental condition to a final concentration of 12, 30 or 60 μg/ml antibiotic.
All tubes were then inoculated with a dilution of the selected ATCC strain 43300 Staphylococcus aureus clone giving a final level of colony forming units of 3.3×10^5/ml (log=5.52). The tubes were incubated at 25° C. and mixed periodically. Antibiotic was re-inoculated every 24 hours at the initial concentration to maintain pressure on the organism. Plating was done at 24, 48, 72, and 120 hours. Each condition was plated by diluting 1 ml of growth material into 9 ml of MLB diluent broth. […] This mixture was serial diluted down to 10^−7 with 1 ml placed in triplicate in a sterile petri dish at each dilution point. 20 mls of TSA was added to each dilution, swirled and allowed to solidify. All dilutions were placed in a 35° C. incubator for 24 to 72 hours. Bacterial colonies on each plate were counted and the average taken then changed into log format. Any cfu/ml observed greater than 3.3×10^5 (log=5.5) were recorded as >3.3×10^5.
The tube was then taken out of the experiment and tested for ATCC strain 43300 Staphylococcus growth. The tube was spun down at 5000 rpm for 10 minutes. The supernatant was then decanted into 90 mls of Mueller-Hinton broth with 6 μg/ml oxacillin. This is for enrichment and the recovery of any MRSA cells that may be present whether healthy or stressed. The pellet had 10 mls Mueller-Hinton broth with 6 μg/ml oxacillin added to it to recover any cells that may be present. Both vessels were incubated at 35° C. for 48 hours followed by plating every 24 hours. Each vessel was plated at 10 dilutions to obtain a 1 cfu detection limit.

## CS(C)(=O)=O [MSM, Methylsulfonylmethane]
12 μg/ml oxacillin, 48 hours
  log reduction in the number of cfu/ml: 4.5 log
12 μg/ml oxacillin, 72 hours
  log reduction in the number of cfu/ml: 4.5 log
12 μg/ml oxacillin, MSM concentrations of 12%-16%, 72 hours
  log reduction in the number of cfu/ml: 1 log
12 μg/ml oxacillin, all MSM concentrations, 24 hours
  average log reduction in the number of cfu/ml: 1.5 logs
30 μg/ml and 60 μg/ml oxacillin, lower end of MSM concentrations, 24 hours
  average Log reduction in the number of cfu/ml: 3 log
30 μg/ml oxacillin + MSM (% in label), 24 hours, listed as 5% MSM
  survival, Average Log: 2.51 Log
30 μg/ml oxacillin + MSM (% in label), 24 hours, listed as 6% MSM
  survival, Average Log: 2.46 Log
30 μg/ml oxacillin + MSM (% in label), 24 hours, listed as 7% MSM
  survival, Average Log: 2.98 Log
30 μg/ml oxacillin + MSM (% in label), 24 hours, listed as 8% MSM
  survival, Average Log: 3.07 Log
30 μg/ml oxacillin + MSM (% in label), 24 hours, listed as 9% MSM
  survival, Average Log: 3.01 Log
30 μg/ml oxacillin + MSM (% in label), 24 hours, listed as 10% MSM
  survival, Average Log: 3.32 Log
30 μg/ml oxacillin + MSM (% in label), 24 hours, listed as 11% MSM
  survival, Average Log: 3.57 Log
30 μg/ml oxacillin + MSM (% in label), 24 hours, listed as 12% MSM
  survival, Average Log: 3.59 Log
30 μg/ml oxacillin + MSM (% in label), 24 hours, listed as 13% MSM
  survival, Average Log: 3.62 Log
30 μg/ml oxacillin + MSM (% in label), 24 hours, listed as 14% MSM
  survival, Average Log: 3.78 Log
30 μg/ml oxacillin + MSM (% in label), 24 hours, listed as 15% MSM
  survival, Average Log: 3.94 Log
30 μg/ml oxacillin + MSM (% in label), 24 hours, listed as 16% MSM
  survival, Average Log: 3.91 Log
30 μg/ml oxacillin + MSM (% in label), 48 hours, listed as 5% MSM
  survival, Average Log: 3.8 Log
30 μg/ml oxacillin + MSM (% in label), 48 hours, listed as 6% MSM
  survival, Average Log: 3.7 Log
30 μg/ml oxacillin + MSM (% in label), 48 hours, listed as 7% MSM
  survival, Average Log: 2.3 Log
30 μg/ml oxacillin + MSM (% in label), 48 hours, listed as 8% MSM
  survival, Average Log: 3.1 Log
30 μg/ml oxacillin + MSM (% in label), 48 hours, listed as 9% MSM
  survival, Average Log: 2.4 Log
30 μg/ml oxacillin + MSM (% in label), 48 hours, listed as 10% MSM
  survival, Average Log: 2.6 Log
30 μg/ml oxacillin + MSM (% in label), 48 hours, listed as 11% MSM
  survival, Average Log: 2.4 Log
30 μg/ml oxacillin + MSM (% in label), 48 hours, listed as 12% MSM
  survival, Average Log: 2.6 Log
30 μg/ml oxacillin + MSM (% in label), 48 hours, listed as 13% MSM
  survival, Average Log: 2.5 Log
30 μg/ml oxacillin + MSM (% in label), 48 hours, listed as 14% MSM
  survival, Average Log: 2.5 Log
30 μg/ml oxacillin + MSM (% in label), 48 hours, listed as 15% MSM
  survival, Average Log: 2.8 Log
30 μg/ml oxacillin + MSM (% in label), 48 hours, listed as 16% MSM
  survival, Average Log: 2.6 Log
30 μg/ml oxacillin + MSM (% in label), 72 hours, listed as 5% MSM
  survival, Average Log: 5.5 Log
30 μg/ml oxacillin + MSM (% in label), 72 hours, listed as 6% MSM
  survival, Average Log: 5.5 Log
30 μg/ml oxacillin + MSM (% in label), 72 hours, listed as 7% MSM
  survival, Average Log: 4.5 Log
30 μg/ml oxacillin + MSM (% in label), 72 hours, listed as 8% MSM
  survival, Average Log: 5.5 Log
30 μg/ml oxacillin + MSM (% in label), 72 hours, listed as 9% MSM
  survival, Average Log: 2.9 Log
30 μg/ml oxacillin + MSM (% in label), 72 hours, listed as 10% MSM
  survival, Average Log: 3.9 Log
30 μg/ml oxacillin + MSM (% in label), 72 hours, listed as 11% MSM
  survival, Average Log: 3.2 Log
30 μg/ml oxacillin + MSM (% in label), 72 hours, listed as 12% MSM
  survival, Average Log: 2.6 Log
30 μg/ml oxacillin + MSM (% in label), 72 hours, listed as 13% MSM
  survival, Average Log: 1.8 Log
30 μg/ml oxacillin + MSM (% in label), 72 hours, listed as 14% MSM
  survival, Average Log: 2.2 Log
30 μg/ml oxacillin + MSM (% in label), 72 hours, listed as 15% MSM
  survival, Average Log: 2.4 Log
30 μg/ml oxacillin + MSM (% in label), 72 hours, listed as 16% MSM
  survival, Average Log: 1.9 Log
30 μg/ml oxacillin, 120 hours
  recovery after enrichment in Mueller-Hinton broth: total kill
60 μg/ml oxacillin + MSM (% in label), 24 hours, listed as 5% MSM
  survival, Average Log: 2.54 Log
60 μg/ml oxacillin + MSM (% in label), 24 hours, listed as 6% MSM
  survival, Average Log: 2.38 Log
60 μg/ml oxacillin + MSM (% in label), 24 hours, listed as 7% MSM
  survival, Average Log: 2.34 Log
60 μg/ml oxacillin + MSM (% in label), 24 hours, listed as 8% MSM
  survival, Average Log: 2.67 Log
60 μg/ml oxacillin + MSM (% in label), 24 hours, listed as 9% MSM
  survival, Average Log: 2.50 Log
60 μg/ml oxacillin + MSM (% in label), 24 hours, listed as 10% MSM
  survival, Average Log: 2.63 Log
60 μg/ml oxacillin + MSM (% in label), 24 hours, listed as 11% MSM
  survival, Average Log: 2.83 Log
60 μg/ml oxacillin + MSM (% in label), 24 hours, listed as 12% MSM
  survival, Average Log: 2.86 Log
60 μg/ml oxacillin + MSM (% in label), 24 hours, listed as 13% MSM
  survival, Average Log: 2.80 Log
60 μg/ml oxacillin + MSM (% in label), 24 hours, listed as 14% MSM
  survival, Average Log: 2.03 Log
60 μg/ml oxacillin + MSM (% in label), 24 hours, listed as 15% MSM
  survival, Average Log: 3.81 Log
60 μg/ml oxacillin + MSM (% in label), 24 hours, listed as 16% MSM
  survival, Average Log: 3.83 Log
60 μg/ml oxacillin + MSM (% in label), 48 hours, listed as 5% MSM
  survival, Average Log: 3.5 Log
60 μg/ml oxacillin + MSM (% in label), 48 hours, listed as 6% MSM
  survival, Average Log: 1.8 Log
60 μg/ml oxacillin + MSM (% in label), 48 hours, listed as 7% MSM
  survival, Average Log: 4.0 Log
60 μg/ml oxacillin + MSM (% in label), 48 hours, listed as 8% MSM
  survival, Average Log: 2.8 Log
60 μg/ml oxacillin + MSM (% in label), 48 hours, listed as 9% MSM
  survival, Average Log: 2.2 Log
60 μg/ml oxacillin + MSM (% in label), 48 hours, listed as 10% MSM
  survival, Average Log: 2.2 Log
60 μg/ml oxacillin + MSM (% in label), 48 hours, listed as 11% MSM
  survival, Average Log: 2.1 Log
60 μg/ml oxacillin + MSM (% in label), 48 hours, listed as 12% MSM
  survival, Average Log: 2.0 Log
60 μg/ml oxacillin + MSM (% in label), 48 hours, listed as 13% MSM
  survival, Average Log: 1.7 Log
60 μg/ml oxacillin + MSM (% in label), 48 hours, listed as 14% MSM
  survival, Average Log: 2.2 Log
60 μg/ml oxacillin + MSM (% in label), 48 hours, listed as 15% MSM
  survival, Average Log: 2.1 Log
60 μg/ml oxacillin + MSM (% in label), 48 hours, listed as 16% MSM
  survival, Average Log: 1.9 Log
60 μg/ml oxacillin + MSM (% in label), 72 hours, listed as 11% MSM
  survival, Average Log: 1 Log
60 μg/ml oxacillin + MSM (% in label), 72 hours, listed as 12% MSM
  survival, Average Log: 2.4 Log
60 μg/ml oxacillin + MSM (% in label), 72 hours, listed as 13% MSM
  survival, Average Log: 1 Log
60 μg/ml oxacillin + MSM (% in label), 72 hours, listed as 14% MSM
  survival, Average Log: 1.5 Log
60 μg/ml oxacillin + MSM (% in label), 72 hours, listed as 16% MSM
  survival, Average Log: 1.8 Log
60 μg/ml oxacillin, 24 hours
  log reduction in the number of cfu/ml: 3.5 log
60 μg/ml oxacillin, 72 hours
  recovery after enrichment in Mueller-Hinton broth: total kill
60 μg/ml oxacillin, 96 hours
  recovery after enrichment in Mueller-Hinton broth: total kill
60 μg/ml oxacillin, 120 hours
  recovery after enrichment in Mueller-Hinton broth: total kill
Positive 5%, 10%, and 16% MSM controls, no antibiotic, 24 hours
  growth: signs of turbid growth
